The text below walks through data of patent US6486185B1, “3-heteroarylidene-2-indolinone protein kinase inhibitors” (Sugen, Inc., priority 1997, dated 2002).

Bounds are passed on as bounds.

In experiment [1] the target is T1, EGFR (Homo sapiens, UniProt P00533).
T1 construct: expressed in transfected cells; host or cells: NIH 3T3/C7
Briefly: EGF receptor ELISA in cells engineered to express human EGF-R. Particulars: 50% inhibition of PTK activity over control. In kind it is cell-based. The method, then:
(§1) The cellular/catalytic assays described herein are performed in an ELISA format. The general procedure is a follows: a compound is introduced to cells expressing the test kinase, either naturally or recombinantly, for some period of time after which, if the test kinase is a receptor, a ligand known to activate the receptor's activity is added. The cells are lysed and the lysate is transferred to the wells of an ELISA plate previously coated with a specific antibody recognizing the substrate of the enzymatic phosphorylation reaction. Non-substrate components of the cell lysate are washed away and the amount of phosphorylation on the substrate is detected with an antibody specifically recognizing phosphotyrosine compared with control cells that were not contacted with a test compound.
EGF Receptor kinase activity in cells genetically engineered to express human EGF-R can be measured as described below:
The following materials and reagents are used
a. EGF Ligand: stock concentration=16.5 μM; EGF 201, TOYOBO, Co., Ltd. Japan.
b. 05-101 (UBI) (a monoclonal antibody recognizing an EGFR extracellular domain).
c. Anti-phosphotyosine antibody (anti-Ptyr) (polyclonal).
d. Detection antibody: Goat anti-rabbit lgG horse radish peroxidase conjugate, TAGO, Inc., Burlingame, Calif.
Keep solution in dark at 4 C until used.
The following protocol is used:
1. Coat ELISA plates (Corning, 96 well, Cat. #25805-96) with 05-101 antibody at 0.5 μg per well in PBS, 150 μL final volume/well, and store overnight at 4° C. Coated plates are good for up to 10 days when stored at 4° C.
2. On day of use, remove coating buffer and replace with blocking buffer (5% Carnation Instant NonFat Dry Milk in PBS). Incubate the plate, shaking, at room temperature (about 23° C. to 25° C.) for 30 minutes. Just prior to use, remove blocking buffer and wash plate 4 times with TBST buffer.
1. NIH 3T3/C7 cell line (Honegger, et al., Cell 51:199-209, 1987) can be use for this assay.
2. Choose dishes having 80-90% confluence for the experiment. Trypsinize cells and stop reaction by adding 10% CS DMEM medium. Suspend cells in DMEM medium (10% CS DMEM medium) and centrifuge once at 1000 rpm at room temperature for 5 minutes.
3. Resuspend cells in seeding medium (DMEM, 0.5% bovine serum), and count the cells using trypan blue. Viability above 90% is acceptable. Seed cells in DMEM medium (0.5% bovine serum) at a density of 10,000 cells per well, 100 μL per well, in a 96 well microtiter plate. Incubate seeded cells in 5% CO2 at 37° C. for about 40 hours.
1. Check seeded cells for contamination using an inverted microscope. Dilute drug stock (10 mg/mL in DMSO) 1:10 in DMEM medium, then transfer 5 μL to a test well for a final drug dilution of 1:200 and a final DMSO concentration of 1%. Control wells receive DMSO alone. Incubate in 5% CO2 at 37° C. for one hour.
2. Prepare EGF ligand: dilute stock EGF in DMEM so that upon transfer of 10 μL dilute EGF (1:12 dilution), 25 nM final concentration is attained.
3. Prepare fresh 10 mL HNTG* sufficient for 100 μL per well wherein HNTG* comprises: HNTG stock (2.0 mL), milli-Q H2O (7.3 mL), EDTA, 100 mM, pH 7.0 (0.5 mL), Na3VO4 0.5 M (0.1 mL) and Na4(P2O7), 0.2 M (0.1 mL).
5. After two hours incubation with drug, add prepared EGF ligand to cells, 10 μL per well, to yield a final concentration of 25 nM. Control wells receive DMEM alone. Incubate, shaking, at room temperature, for 5 minutes.
6. Remove drug, EGF, and DMEM. Wash cells twice with PBS. Transfer HNTG* to cells, 100 μL per well. Place on ice for 5 minutes. Meanwhile, remove blocking buffer from other ELISA plate and wash with TBST as described above.
7. With a pipette tip securely fitted to a micropipettor, scrape cells from plate and homogenize cell material by repeatedly aspirating and dispensing the HNTG* lysis buffer. Transfer lysate to a coated, blocked, and washed ELISA plate. Incubate shaking at room temperature for one hour.
8. Remove lysate and wash 4 times with TBST. […]
A general note: ELISA stands for enzyme-linked immunosorbent assay.

For experiment [2], the target named is T2, IGF-1R (Homo sapiens, UniProt P08069).
T2 construct: expressed in transfected cells; host or cells: NIH3T3 (3T3/IGF-1R)
Description: IGF-I receptor ELISA in 3T3/IGF-1R cells. Particulars: 50% inhibition of PTK activity over control. It is filed as cell-based. The method, then:
as §1
The following protocol may be used to measure phosphotyrosine level on IGF-I receptor, which indicates IGF-I receptor tyrosine kinase activity.
The following materials and reagents are used:
a. The cell line used in this assay is 3T3/IGF-1R, a cell line genetically engineered to overexpresses IGF-1 receptor.
b. NIH3T3/IGF-1R is grown in an incubator with 5% CO2 at 37° C. The growth media is DMEM+10% FBS (heat inactivated)+2 mM L-glutamine.
c. Affinity purified anti-IGF-1R antibody 17-69.
e. Blocking Buffer: TBST plus 5% Milk (Carnation Instant Non-Fat Dry Milk).
Stock solution of TBS (10×) is prepared, and Triton X-100 is added to the buffer during dilution.
Stock solution (5×) is prepared and kept at 4° C.
h. EDTA/HCl: 0.5 M pH 7.0 (NaOH) as 100×stock.
i. Na3VO4: 0.5 M as 100×stock and aliquots are kept in −80° C.
k. Insulin-like growth factor-1 from Promega (Cat# G5111).
l. Rabbit polyclonal anti-phosphotyrosine antiserum.
m. Goat anti-rabbit IgG, POD conjugate (detection antibody), Tago (Cat. No. 4520, Lot No. 1802): Tago, Inc., Burlingame, Calif.
n. ABTS (2,2′-azinobis(3-ethylbenzthiazolinesulfonic acid)) solution:
ABTS solution should be kept in dark and 4° C. The solution should be discarded when it turns green.
o. Hydrogen Peroxide: 30% solution is kept in the dark and at 4° C.
All the following steps are conducted at room temperature unless it is specifically indicated. All ELISA plate washings are performed by rinsing the plate with tap water three times, followed by one TBST rinse. Pat plate dry with paper towels.
1. The cells, grown in tissue culture dish (Corning 25020-100) to 80-90% confluence, are harvested with Trypsin-EDTA (0.25%, 0.5 mL/D-100, GIBCO).
2. Resuspend the cells in fresh DMEM+10% FBS+2 mM L-Glutamine, and transfer to 96-well tissue culture plate (Corning, 25806-96) at 20,000 cells/well (100 μL/well). Incubate for 1 day then replace medium to serum-free medium (90/μL) and incubate in 5% CO2 and 37° C. overnight.
B. ELISA Plate Coating and Blocking:
1. Coat the ELISA plate (Corning 25805-96) with Anti-IGF-1R Antibody at 0.5 μg/well in 100 μL PBS at least 2 hours.
2. Remove the coating solution, and replace with 100 μL Blocking Buffer, and shake for 30 minutes. Remove the blocking buffer and wash the plate just before adding lysate.
1. The drugs are tested in serum-free condition.
2. Dilute drug stock (in 100% DMSO) 1:10 with DMEM in 96-well poly-propylene plate, and transfer 10 μL/well of this solution to the cells to achieve final drug dilution 1:100, and final DMSO concentration of 1.0%. Incubate the cells in 5% CO2 at 37° C. for 2 hours.
3. Prepare fresh cell lysis buffer (HNTG*)
4. After drug incubation for two hours, transfer 10 μL/well of 200 nM IGF-1 Ligand in PBS to the cells (Final Conc.=20 nM), and incubate at 5% CO2 at 37° C. for 10 minutes.
5. Remove media and add 100 μL/well HNTG* and shake for 10 minutes. Look at cells under microscope to see if they are adequately lysed.
6. Use a 12-channel pipette to scrape the cells from the plate, and homogenize the lysate.by repeated aspiration and dispensing. Transfer all the lysate to the antibody coated ELISA plate, and shake for 1 hour.
7. […]

T2 sequence (P08069 31-1367, species assumed): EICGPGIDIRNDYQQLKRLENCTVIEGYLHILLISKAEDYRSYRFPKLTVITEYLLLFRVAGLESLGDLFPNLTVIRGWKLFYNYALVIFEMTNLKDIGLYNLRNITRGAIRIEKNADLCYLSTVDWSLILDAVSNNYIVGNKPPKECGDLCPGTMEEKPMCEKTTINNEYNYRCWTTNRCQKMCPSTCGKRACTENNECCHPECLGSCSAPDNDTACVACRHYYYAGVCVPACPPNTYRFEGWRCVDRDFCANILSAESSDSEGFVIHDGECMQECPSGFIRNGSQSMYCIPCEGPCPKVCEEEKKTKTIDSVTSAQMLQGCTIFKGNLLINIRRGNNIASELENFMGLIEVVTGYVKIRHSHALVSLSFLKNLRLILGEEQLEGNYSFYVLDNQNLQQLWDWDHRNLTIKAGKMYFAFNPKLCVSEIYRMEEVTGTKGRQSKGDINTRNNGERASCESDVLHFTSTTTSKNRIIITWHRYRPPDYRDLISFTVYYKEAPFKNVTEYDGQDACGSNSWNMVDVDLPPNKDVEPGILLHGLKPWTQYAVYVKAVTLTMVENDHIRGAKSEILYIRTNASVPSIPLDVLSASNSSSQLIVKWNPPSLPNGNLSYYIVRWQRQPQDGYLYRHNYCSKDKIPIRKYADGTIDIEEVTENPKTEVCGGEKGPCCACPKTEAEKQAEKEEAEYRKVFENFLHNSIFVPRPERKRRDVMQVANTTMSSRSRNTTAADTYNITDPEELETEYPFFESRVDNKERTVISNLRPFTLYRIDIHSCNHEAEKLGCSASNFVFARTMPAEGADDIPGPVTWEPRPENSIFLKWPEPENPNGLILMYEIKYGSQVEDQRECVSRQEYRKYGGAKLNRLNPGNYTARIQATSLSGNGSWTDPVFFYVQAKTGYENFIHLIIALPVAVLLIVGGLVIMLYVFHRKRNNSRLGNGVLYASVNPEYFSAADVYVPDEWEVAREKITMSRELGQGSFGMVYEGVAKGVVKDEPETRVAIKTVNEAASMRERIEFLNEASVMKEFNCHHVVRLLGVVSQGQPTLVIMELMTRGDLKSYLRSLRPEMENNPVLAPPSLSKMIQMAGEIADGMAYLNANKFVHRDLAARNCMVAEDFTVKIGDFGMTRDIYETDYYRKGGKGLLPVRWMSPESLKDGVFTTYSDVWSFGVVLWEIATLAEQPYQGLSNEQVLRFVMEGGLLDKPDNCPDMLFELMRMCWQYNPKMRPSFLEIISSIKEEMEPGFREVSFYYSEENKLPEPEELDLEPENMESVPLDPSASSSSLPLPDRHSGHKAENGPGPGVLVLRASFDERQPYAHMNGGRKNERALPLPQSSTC
T1 sequence (P00533 25-1210): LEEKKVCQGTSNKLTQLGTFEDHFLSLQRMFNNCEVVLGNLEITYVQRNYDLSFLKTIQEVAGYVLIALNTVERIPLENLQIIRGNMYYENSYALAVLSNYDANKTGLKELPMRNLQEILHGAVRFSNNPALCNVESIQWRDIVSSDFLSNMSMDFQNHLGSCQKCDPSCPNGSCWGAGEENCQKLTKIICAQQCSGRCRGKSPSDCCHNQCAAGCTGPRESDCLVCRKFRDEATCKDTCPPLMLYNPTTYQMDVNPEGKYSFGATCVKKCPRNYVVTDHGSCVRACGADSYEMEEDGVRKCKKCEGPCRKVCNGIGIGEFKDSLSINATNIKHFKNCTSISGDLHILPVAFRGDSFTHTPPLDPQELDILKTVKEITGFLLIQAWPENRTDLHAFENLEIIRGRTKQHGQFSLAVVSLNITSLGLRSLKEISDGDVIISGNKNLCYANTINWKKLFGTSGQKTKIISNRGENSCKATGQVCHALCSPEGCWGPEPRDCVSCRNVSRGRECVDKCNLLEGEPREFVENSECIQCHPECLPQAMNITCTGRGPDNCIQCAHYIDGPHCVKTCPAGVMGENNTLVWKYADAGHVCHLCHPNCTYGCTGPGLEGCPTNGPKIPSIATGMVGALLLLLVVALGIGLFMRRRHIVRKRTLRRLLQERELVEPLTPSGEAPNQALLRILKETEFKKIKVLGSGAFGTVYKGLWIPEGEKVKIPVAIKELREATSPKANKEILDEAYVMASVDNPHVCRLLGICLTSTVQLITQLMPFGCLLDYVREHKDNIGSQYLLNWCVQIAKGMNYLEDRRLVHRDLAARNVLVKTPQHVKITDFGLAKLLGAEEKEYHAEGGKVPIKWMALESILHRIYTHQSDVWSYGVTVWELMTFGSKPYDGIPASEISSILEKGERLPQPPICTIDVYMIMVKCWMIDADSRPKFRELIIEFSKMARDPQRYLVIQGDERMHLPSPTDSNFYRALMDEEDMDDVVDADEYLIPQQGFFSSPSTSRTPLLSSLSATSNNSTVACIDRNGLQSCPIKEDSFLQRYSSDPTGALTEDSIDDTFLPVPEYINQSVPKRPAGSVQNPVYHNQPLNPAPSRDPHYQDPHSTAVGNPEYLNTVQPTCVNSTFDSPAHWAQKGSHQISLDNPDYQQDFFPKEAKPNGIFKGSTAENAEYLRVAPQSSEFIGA

As a reminder, the IC50 is the concentration needed to halve the response being measured. A high value points to lower potency. As for `CCOC(=O)c1c(C)[nH]c(C=C2C(=O)Nc3ccccc32)c1C` [3-(2,4-dimethyl-3-ethoxycarbonylpyrrol-5-methylidenyl)-2-indolinone], the IC50 in experiment [1] and in experiment [2] was above 100 µM throughout.
As to `CCc1c(C=C2C(=O)Nc3ccccc32)[nH]c(C(=O)O)c1C` [3-(2-carboxy-4-ethyl-3-methylpyrrol-5-methylidenyl)-2-indolinone], the IC50 in experiment [1] and in experiment [2] was above 100 µM throughout.
